Laboratory results taken from the supplement of paper PMC10307832.

Key:
Experiment in all cases: relative viability (nuclei count vs DMSO), 5 days (fraction); higher = more cells survive
KIN001-266 + Trametinib = compound: CCN1CCC(CC1)N2C=C(N=N2)CNC3=CC4=C(C(=CN=C4C(=C3)Cl)C#N)NC5=CC(=C(C=C5)F)Cl [KIN001-266] + CC(=O)Nc1cccc(-n2c(=O)n(C3CC3)c(=O)c3c(Nc4ccc(I)cc4F)n(C)c(=O)c(C)c32)c1 [Trametinib] (partner 0.02 µM)
Outline: (§1)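 One day after seeding in 1536-well plates, lung cancer cell lines were dosed by pin tool. Dosing was either single-drug or a fixed anchor-drug dose plus five library-drug doses (not always all listed) in √10 steps. After 5 days, nuclei were stained in one fix-and-stain step and counted on 4× images, and relative viability is the nuclei count of treated wells over that of vehicle wells, given as the median of duplicate plates.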

KIN001-266 + OSI-027 = compound: CCN1CCC(CC1)N2C=C(N=N2)CNC3=CC4=C(C(=CN=C4C(=C3)Cl)C#N)NC5=CC(=C(C=C5)F)Cl [KIN001-266] + COc1cccc2cc(-c3nc([C@H]4CC[C@H](C(=O)O)CC4)n4ncnc(N)c34)[nH]c12 [OSI-027] (partner 0.5 µM)
Outline: as §1

KIN001-266 + Crizotinib = compound: CCN1CCC(CC1)N2C=C(N=N2)CNC3=CC4=C(C(=CN=C4C(=C3)Cl)C#N)NC5=CC(=C(C=C5)F)Cl [KIN001-266] + C[C@@H](Oc1cc(-c2cnn(C3CCNCC3)c2)cnc1N)c1c(Cl)ccc(F)c1Cl [Crizotinib] (partner 1 µM)
Outline: as §1

KIN001-266 + Phenformin = compound: CCN1CCC(CC1)N2C=C(N=N2)CNC3=CC4=C(C(=CN=C4C(=C3)Cl)C#N)NC5=CC(=C(C=C5)F)Cl [KIN001-266] + N=C(N)NC(=N)NCCc1ccccc1 [Phenformin] (partner 250 µM)
Outline: as §1

Row | Cell Line | relative viability (KIN001-266 + Trametinib; first compound 0.08 µM) | relative viability (KIN001-266 + Trametinib; first compound 0.253 µM) | relative viability (KIN001-266 + Trametinib; first compound 0.8 µM) | relative viability (KIN001-266 + Trametinib; first compound 2.53 µM) | relative viability (KIN001-266 + Trametinib; first compound 8 µM) | relative viability (KIN001-266 + OSI-027; first compound 0.08 µM) | relative viability (KIN001-266 + OSI-027; first compound 0.253 µM) | relative viability (KIN001-266 + OSI-027; first compound 0.8 µM) | relative viability (KIN001-266 + OSI-027; first compound 2.53 µM) | relative viability (KIN001-266 + OSI-027; first compound 8 µM) | relative viability (KIN001-266 + Crizotinib; first compound 0.08 µM) | relative viability (KIN001-266 + Crizotinib; first compound 0.253 µM) | relative viability (KIN001-266 + Crizotinib; first compound 0.8 µM) | relative viability (KIN001-266 + Crizotinib; first compound 2.53 µM) | relative viability (KIN001-266 + Crizotinib; first compound 8 µM) | relative viability (KIN001-266 + Phenformin; first compound 0.08 µM) | relative viability (KIN001-266 + Phenformin; first compound 0.253 µM) | relative viability (KIN001-266 + Phenformin; first compound 0.8 µM) | relative viability (KIN001-266 + Phenformin; first compound 2.53 µM) | relative viability (KIN001-266 + Phenformin; first compound 8 µM)
1 | NCI-H1666 | 0.909 | 0.897 | 0.713 | 0.855 | 0.761 | 0.838 | 0.879 | 0.88 | 0.849 | 0.802 | 0.963 | 1.21 | 1.01 | 0.964 | 0.797 | 0.547 | 0.627 | 0.573 | 0.581 | 0.574
2 | NCI-H1734 | 0.671 | 0.715 | 0.606 | 0.672 | 0.608 | 0.621 | 0.583 | 0.578 | 0.549 | 0.522 | 0.647 | 0.601 | 0.589 | 0.681 | 0.51 | 0.416 | 0.387 | 0.405 | 0.357 | 0.321
3 | NCI-H1755 | 0.727 | 0.802 | 0.775 | 0.792 | 0.684 | 0.74 | 0.739 | 0.679 | 0.723 | 0.651 | 0.942 | 0.798 | 0.836 | 0.826 | 0.718 | 0.643 | 0.62 | 0.625 | 0.621 | 0.549
4 | NCI-H1792 | 0.372 | 0.341 | 0.43 | 0.416 | 0.476 | 0.772 | 0.711 | 0.729 | 0.732 | 0.691 | 0.975 | 0.898 | 0.932 | 0.971 | 0.968 | 0.26 | 0.223 | 0.17 | 0.123 | 0.265
5 | NCI-H1915 | 0.312 | 0.302 | 0.298 | 0.293 | 0.223 | 0.703 | 0.635 | 0.629 | 0.661 | 0.49 | 0.895 | 0.87 | 0.902 | 0.918 | 0.851 | 0.365 | 0.379 | 0.354 | 0.379 | 0.36
6 | NCI-H1944 | 0.419 | 0.401 | 0.324 | 0.393 | 0.41 | 0.46 | 0.473 | 0.373 | 0.44 | 0.343 | 1.13 | 1.13 | 1.1 | 1.08 | 1.24 | 0.208 | 0.194 | 0.186 | 0.199 | 0.164
7 | NCI-H1975 | 0.435 | 0.343 | 0.346 | 0.461 | 0.325 | 0.692 | 0.776 | 0.769 | 0.691 | 0.555 | 1.04 | 0.928 | 0.964 | 0.966 | 0.842 | 0.416 | 0.402 | 0.431 | 0.422 | 0.36
8 | NCI-H1993 | 0.559 | 0.52 | 0.478 | 0.475 | 0.522 | 0.562 | 0.537 | 0.607 | 0.582 | 0.63 | 0.954 | 0.858 | 0.982 | 0.815 | 0.776 | 0.505 | 0.493 | 0.506 | 0.49 | 0.575
9 | NCI-H2009 | 0.296 | 0.313 | 0.273 | 0.23 | 0.253 | 0.711 | 0.686 | 0.744 | 0.493 | 0.41 | 1.05 | 1.05 | 0.984 | 0.928 | 0.901 | 0.455 | 0.432 | 0.441 | 0.319 | 0.262
10 | NCI-H2023 | 0.51 | 0.578 | 0.533 | 0.447 | 0.456 | 0.449 | 0.437 | 0.379 | 0.368 | 0.241 | 0.732 | 0.603 | 0.576 | 0.648 | 0.459 | 0.378 | 0.391 | 0.401 | 0.304 | 0.28
11 | NCI-H2085 | 0.569 | 0.457 | 0.567 | 0.558 | 0.541 | 0.808 | 0.835 | 0.582 | 0.759 | 0.416 | 0.867 | 1.05 | 0.875 | 0.794 | 0.615 | 0.855 | 0.741 | 0.663 | 0.669 | 0.632
12 | NCI-H2087 | 0.254 | 0.276 | 0.16 | 0.175 | 0.175 | 0.823 | 0.65 | 0.599 | 0.458 | 0.486 | 0.699 | 0.81 | 0.604 | 0.786 | 0.532 | 0.439 | 0.467 | 0.38 | 0.352 | 0.234
13 | NCI-H2126 | 0.583 | 0.554 | 0.621 | 0.568 | 0.518 | 0.712 | 0.754 | 0.696 | 0.635 | 0.618 | 1.04 | 1.02 | 0.965 | 1.05 | 1.08 | 0.535 | 0.519 | 0.546 | 0.555 | 0.5
14 | NCI-H2170 | 0.969 | 0.872 | 0.96 | 0.934 | 0.822 | 0.734 | 0.769 | 0.708 | 0.639 | 0.719 | 1.17 | 1.19 | 1.22 | 1.11 | 1.18 | 0.38 | 0.383 | 0.377 | 0.358 | 0.334
15 | NCI-H2228 | 0.564 | 0.448 | 0.457 | 0.357 | 0.402 | 0.623 | 0.428 | 0.606 | 0.462 | 0.34 | 0.583 | 0.435 | 0.565 | 0.493 | 0.471 | 0.392 | 0.282 | 0.322 | 0.296 | 0.281
